Target: T1, Dimer of Gag-Pol polyprotein [489-587] (Human immunodeficiency virus 1, UniProt P12497)
T1 construct: 489-587
Assay: Protease Inhibition Assay
Settings: pH 5; 22 °C
Description: HIV-1 protease was purified and refolded from E. coli inclusion bodies. […] In the presence of HIV-l protease, the substrate is rapidly cleaved into two parts. The biotinylated amino terminal fragment binds to the avidin beads while the FITC-containing carboxy1 terminal fragment is removed through the membrane. […] The bound fluorescence is obtained by processing on an IDEXX Screen Machine. Determination of Ki values with this assay requires analysis under conditions in which substrate concentration resides substantially below Km and the inhibitor concentrations greatly exceeds the Ki value and the enzyme concentration.

Compound `O=c1oc2c(c(O)c1[C@H](c1cccc(NS(=O)(=O)c3ccccc3)c1)C1CC1)CCCCCC2` [N-{3-[(S)-cyclopropyl({4-hydroxy-2-oxo-2H,5H,6H,7H,8H,9H,10H-cycloocta[b]pyran-3-yl})methyl]phenyl}benzenesulfonamide] has a Ki of 3 nM.
